Consider five compounds from publication PMC9198545, “Pharmacokinetics and Pharmacodynamics of Fungal Defensin NZX Against Staphylococcus aureus-Induced Mouse Peritonitis Model” (Frontiers in Microbiology, 2022).

The subject of data set [1] is S. aureus E48. Put plainly: microbe, parasite or virus in culture. As to the method:
(§1) The MICs of NZX and other antibacterial agents against S. aureus strains were conducted according to the Clinical Laboratory Standards Institute (Watts et al., [2013]). […] The wells containing antibiotics were set as positive controls. Negative control wells contained a PBS buffer and bacterial suspension without antibacterial agents. The MIC value was defined as the lowest concentration of antibacterial agents at which no visible bacteria were observed. All MIC assays were performed independently in triplicate.

The subject of data set [2] is S. aureus MRSA ATCC 43300. Put plainly: microbe, parasite or virus in culture. On the procedure:
as §1

Data set [3] relates to S. aureus MSSA ATCC 25923. In words: microbe, parasite or virus in culture. The following applies: Staphylococcus aureus, ATCC25923|MSSA. As to the method:
as §1

Data set [4] concerns S. aureus E48. In words: Survival rate and time-killing kinetic curves. Format: cell-based, Staphylococcus aureus. To be noted: for Survival rate of S. aureus E48: 1/2 × to 2 × MIC for 2 h, 1 × 10^5 CFU/ml, mean n = 3; for time to complete killing of S. aureus E48: 2 × MIC. As to the method: Survival rate and time-killing kinetic curves experiments were conducted as described previously (Li et al., [2020b]). […] After incubation at various times (0, 15, 30, 60, 90, and 120 min), a volume of 100 μl of bacterial suspension was taken out from a flask and diluted to count. All assays were conducted independently in triplicate.

For data set [5], the system named is S. aureus E48. In words: microbe, parasite or virus in culture. To be noted: for MIC: Staphylococcus aureus, E48, read-out: MIC after 30-day serial passage. On the procedure:
The development of drug resistance of S. aureus E48 induced by NZX and antibiotics was conducted as described previously (Li et al., [2017]). The MICs of antibacterial agents were measured according to the MICs testing method as described above. […] Then, the MIC values of the next passage were conducted again, and the experimental procedures were repeated for 30 days. The development of drug resistance was determined by the fold changes in MICs.

Data set [6] relates to S. aureus E48. In words: MIC after cathepsin B treatment or in MHB at pH 5.0. Format: cell-based, Staphylococcus aureus. The following applies: for MIC at pH 5.0 compared to pH 7.4 (increase): MHB adjusted to pH 5.0, lysosomal acid environment; for change of MIC in phagolysosomal proteinase environment: cathepsin B 16 μg/ml, pH 5.0 buffer, 37°C, 1 h. As to the method: To test the effect of phagolysosomal enzyme-cathepsin B (from bovine spleen, Sigma C7800) on the antibacterial activities of peptides, NZX was diluted to 640 μg/ml in a cathepsin buffer (5-mM L-cysteine, 20-mM sodium acetate, 1-mM EDTA, pH of 5.0) and incubated with 16 μg/ml enzyme solution at 37°C for 1 h. The MIC value of NZX against S. aureus E48 was examined. NZX without enzyme solution was set as the negative control. Additionally, to mimic the intracellular condition, the MHB medium was adjusted to a specific pH value of 5.0 to determine the MIC value of NZX against S. aureus E48 in the acidic environment (Wang et al., [2019]). In all experiments, clindamycin, linezolid, daptomycin, and ampicillin acted as antibiotic control.

In data set [7] the test system is S. aureus E48. Format: in vivo, mouse. The following applies: for extension of survival time: 20 mg/kg intravenous single injection; for survival rate of the mice: 7 days, n = 6. As to the method:
Each mouse was received a peritonitis by intraperitoneal injection of S. aureus E48 suspended in a PBS buffer (2 × 10^8 CFU/ml, 0.5 ml). […] After therapy, the survival conditions of the mice were recorded within 7 days.

The test system of data set [8] is S. aureus E48. Put plainly: MIC in physiological salt and serum media. To be noted: MHB adjusted to 1.25 mM CaCl2. Type of data set: cell-based, Staphylococcus aureus. On the procedure:
The physiological salt and serum stability of NZX were performed according to the previous report (Hirsch et al., [2019]).

Data set [9] has as its system intracellular S. aureus E48 in RAW 264.7. Put plainly: Intracellular antibacterial activity in RAW 264.7 cells. Type of data set: cell-based, Staphylococcus aureus. The following applies: 1, 4, 16, 64 and 128 μg/ml, 24 h. On the procedure: The antibacterial effects of NZX against intracellular S. aureus E48 in RAW 264.7 were determined according to a previous study (Wang et al., [2018]). The antibacterial concentrations of NZX against S. aureus E48 were set as 1, 4, 16, 64, and 128 μg/ml. Daptomycin was selected as a control because it is a polypeptide drug similar to NZX. In addition, the internalization and distribution assays of NZX in RAW 264.7 were conducted according to Wang et al. ([2019]). Briefly, RAW 264.7 cells were grown on culture dishes at 37°C for 24 h. FITC or FITC-NZX (1, 16, and 64 μg/ml) was added and incubated in the culture dishes for 24 h. The cells were washed two times with PBS and quenched by 0.04% trypan blue. Samples were analyzed by flow cytometry to determine the uptake of NZX. In distribution analysis, FITC or FITC-NZX at 64 μg/ml was added and incubated in the culture dishes for 24 h. The cells were washed two times with PBS, stained with 5 μg/ml wheat germ agglutinin (WGA)-conjugated Alexa Fluor 555 (ThermoFisher Scientific, USA) and Hoechst 33342 (ThermoFisher Scientific, USA) for 10 min, and observed by confocal microscopy (Leica TCS SP 5, Germany).

Data set [10] relates to S. aureus E48. In words: Bacterial burden in organs and peritoneal fluid, mouse peritonitis model. To be noted: 20 mg/kg, 24 h. Type of data set: in vivo. As to the method: In this study, untreated mice that received a lethal dose of S. aureus (2 × 10^8 CFU/ml, 0.5 ml) began to die at 6 to 8 h, and all died before 24 h, which made it difficult for us to obtain the samples when the therapy effects after 24 h administration were analyzed. Therefore, the mice that received half lethal doses of S. aureus E48 (1 × 10^8 CFU/ml, 0.5 ml) were conducted in the following pharmacodynamics analysis. After 24 h therapy with NZX (5, 10, and 20 mg/kg) or daptomycin (20 mg/kg), organ tissues, including livers, lungs, spleens, hearts, and kidneys, were collected, homogenated, and plated to count bacterial burden. In addition, the total number of bacteria and intracellular bacteria counts in peritoneal fluids were determined as described by Wang et al. ([2018]). Briefly, the total bacterial CFU in the peritoneal fluid were quantified before any further procedures. In addition, the collected peritoneal fluid was centrifuged and washed to obtain peritoneal macrophage, and then extracellular bacteria were killed after treatment with 50 μg/ml lysostaphin at 37°C for 30 min. The cells were washed two times by PBS and suspended with 1 ml of cold sterile water for lysis, and the lysate was used to determine the intracellular bacterial burden.

For data set [11], the system named is S. aureus E48. The following applies: ref Yang et al., 2019, cited from earlier work. The text has this:
NZX, a variant of plectasin, has garnered interest as an ideal therapeutic drug against S. aureus because of its ability to kill intracellular bacteria and good biocompatibility (Tenland et al., [2018]; Liu et al., [2020]). […] T ...

The conditions of data set [12]: ref Liu et al., 2020; cited from earlier work. From the text:
However, plectasin had some limitations before clinical application, such as cytotoxicity and trypsin instability (Yang et al., [2019]). NZX (MW 4383.89 Da), a variant of plectasin with three mutation sites (D9S, M13I, and K32R), had the increased net charge (from +1 to +2) and hydrophobicity (from −0.695 to ...

Details of data set [13]: method as in Andes et al., 2009; Brinch et al., 2009. To be noted: in human and mice serum, ref Andes et al., 2009, Brinch et al.; cited from earlier work.
Setting [14] is: 1 × 10^5 CFU/ml, 16–18 h at 37°C, 96-well microplate, daptomycin with 1.25 mM calcium chloride, triplicate.
The mark [15] stands for this setting: text summary over two strains: S. aureus MSSA ATCC 25923 and S. aureus E48.
Setting [16] is: 20 mg/kg intravenous single injection 2 h post-infection, 2 × 10^8 CFU/ml, 0.5 ml i.p.
[17] abbreviates: 20 mg/kg intravenous two times (2 h and 8 h after infection).
[18] abbreviates: repeated exposure at sub-MIC for 30 days.

≈ marks a conversion by molar mass, not a printed value. Where two headings read alike, the source gives them in different places.

Regarding `CC1(C)S[C@@H]2[C@H](NC(=O)[C@H](N)c3ccccc3)C(=O)N2[C@H]1C(=O)O` [Ampicillin], the MIC in data set [1] (Staphylococcus aureus) is 0.25 µg/mL (≈ 0.715 µM); in [2] (Staphylococcus aureus), 8 µg/mL (≈ 22.9 µM); in data set [3] (setting [14]), 0.25 µg/mL (≈ 0.715 µM); in data set [3] (setting [15]), 0.25 µg/mL (≈ 0.715 µM); in [5], 16 µg/mL (≈ 45.8 µM). Also, the “Survival rate of S. aureus E48” value in data set [4] is recorded as 83.21–100.31%. Besides, the “MIC at pH 5.0 compared to pH 7.4 (increase)” value (“MIC … (increase)” for short) in data set [6] is reported as “did not influence”. Besides, the “change of MIC in phagolysosomal proteinase environment” value (shortened to “change of MIC”) in data set [6] was “at least 4 fold”. Also, in data set [7], the “extension of survival time” value lay in the range of 2 to 4 days. For the same compound, the “survival rate of the mice” value in data set [7] (setting [16]) is on record as “all the mice were dead”; in data set [7] (setting [17]), 50%.

`CCC[C@@H]1C[C@@H](C(=O)N[C@@H]([C@H]2O[C@H](SC)[C@H](O)[C@@H](O)[C@H]2O)[C@H](C)Cl)N(C)C1` [Clindamycin]: the “time to complete killing of S. aureus E48” value in [4] was not above 2 h. In data set [6], the “MIC … (increase)” value is not above 8 fold and the “change of MIC” value was “at least 4 fold”.

In turn, `CCCCCCCCCC(=O)N[C@@H](Cc1c[nH]c2ccccc12)C(=O)N[C@H](CC(N)=O)C(=O)N[C@@H](CC(=O)O)C(=O)N[C@@H]1C(=O)NCC(=O)N[C@@H](CCCN)C(=O)N[C@@H](CC(=O)O)C(=O)N[C@H](C)C(=O)N[C@@H](CC(=O)O)C(=O)NCC(=O)N[C@H](CO)C(=O)N[C@@H]([C@H](C)CC(=O)O)C(=O)N[C@@H](CC(=O)c2ccccc2N)C(=O)O[C@@H]1C` [Daptomycin] yielded an MIC in [1] of 1 µg/mL (≈ 0.617 µM). In data set [2] (ATCC 43300), this compound returned an MIC of 0.5 µg/mL (≈ 0.309 µM). Further, in data set [4], the “Survival rate of S. aureus E48” value is 0–83.03% and the “time to complete killing of S. aureus E48” value was not above 2 h. The “MIC after 30-day serial passage” value in data set [5] (setting [18]) amounted to 8 µg/mL (≈ 4.94 µM). Besides, in data set [8], the “decrease of MIC under the addition of 1.25-mM CaCl2” value is listed as 8–16 fold. Besides, in [6], the “change of MIC” value is “did not change”. For the same compound, in data set [9], the “reduction of intracellular S. aureus” value is 89.74~98.53%. Moreover, in data set [7] (setting [16]), the “survival rate of the mice” value came out at 16.7%. In data set [7] (setting [17]), the “survival rate of the mice” value stood at 100%. Besides, the “bacteria burdens of liver, lung and spleen compared with the untreated group” value in data set [10] is “no obvious difference”. In data set [10] (mean ± SD, n = 6), the “reduction of intracellular bacteria burden in the peritoneal fluid” value is 0.66 ± 0.83 Log10 CFU/ml and the “reduction of total bacterial burden in the peritoneal fluid” value is 1.79 ± 1.05 Log10 CFU/ml.

Regarding `CC(=O)NC[C@H]1CN(c2ccc(N3CCOCC3)c(F)c2)C(=O)O1` [Linezolid], the MIC in data set [1] (Staphylococcus aureus) was 1 µg/mL (≈ 2.96 µM); in data set [2] (Staphylococcus aureus), 2 µg/mL (≈ 5.93 µM); in [3] (setting [14]) it was 2 µg/mL (≈ 5.93 µM); in [3] (setting [15]), 1 to 2 µg/mL (≈ 2.96 to 5.93 µM); in [5], 2 µg/mL (≈ 5.93 µM). Besides, the “Survival rate of S. aureus E48” value in [4] is listed as 94.08–99.89%. In addition, the “increase in the MIC value after 30-day serial passage” value in data set [5] (setting [18]) came to 2 fold. Also, the “MIC … (increase)” value in [6] is given as “did not influence”. In data set [6], the “change of MIC” value is recorded as “did not change”. Further, the “extension of survival time” value in data set [7] lay in the range of 2 to 4 days. Further, the “survival rate of the mice” value in data set [7] (setting [16]) is “all the mice were dead”; in data set [7] (setting [17]), “did not improve the survival rate”. The compound further gave a lives extended in data set [7] (20 mg/kg intravenous two times) of 2 to 6 days.

Regarding plectasin, the “S. aureus E48 killed” value in data set [11] (2 × MIC, within 1 h) is “approximately 85.85%”. Moreover, the “time to eliminate bacteria” value in [11] (2 × MIC) is listed as not above 2 h. Besides, in data set [11] (strain not given, compared with Table 2), the MIC is 4 µg/mL. Further, in [12], the hydrophobicity is recorded as −0.695 and the net charge entry is given as “+1”. For the same compound, the protein-binding degree in data set [13] is on record as 90%.
